Legend:
Type in all cases: biochemical
B-Raf V600E = B-Raf V600E (Homo sapiens, UniProt P15056, V600E); assay: Kinase activity assay, B-Raf V600E; details: read-out: activity toward kinase B-Raf V600E, IC50
B-Raf = B-Raf (Homo sapiens, UniProt P15056); assay: Kinase activity assay, B-Raf; details: read-out: activity toward kinase B-Raf, IC50
C-Raf = C-Raf (Homo sapiens, UniProt P04049); assay: Kinase activity assay, C-Raf; details: read-out: activity toward kinase C-Raf, IC50
Fms = Fms (Homo sapiens, UniProt P07333); assay: Kinase activity assay, Fms; details: read-out: activity toward kinase Fms, IC50
Sequence of Fms (P07333 20-972): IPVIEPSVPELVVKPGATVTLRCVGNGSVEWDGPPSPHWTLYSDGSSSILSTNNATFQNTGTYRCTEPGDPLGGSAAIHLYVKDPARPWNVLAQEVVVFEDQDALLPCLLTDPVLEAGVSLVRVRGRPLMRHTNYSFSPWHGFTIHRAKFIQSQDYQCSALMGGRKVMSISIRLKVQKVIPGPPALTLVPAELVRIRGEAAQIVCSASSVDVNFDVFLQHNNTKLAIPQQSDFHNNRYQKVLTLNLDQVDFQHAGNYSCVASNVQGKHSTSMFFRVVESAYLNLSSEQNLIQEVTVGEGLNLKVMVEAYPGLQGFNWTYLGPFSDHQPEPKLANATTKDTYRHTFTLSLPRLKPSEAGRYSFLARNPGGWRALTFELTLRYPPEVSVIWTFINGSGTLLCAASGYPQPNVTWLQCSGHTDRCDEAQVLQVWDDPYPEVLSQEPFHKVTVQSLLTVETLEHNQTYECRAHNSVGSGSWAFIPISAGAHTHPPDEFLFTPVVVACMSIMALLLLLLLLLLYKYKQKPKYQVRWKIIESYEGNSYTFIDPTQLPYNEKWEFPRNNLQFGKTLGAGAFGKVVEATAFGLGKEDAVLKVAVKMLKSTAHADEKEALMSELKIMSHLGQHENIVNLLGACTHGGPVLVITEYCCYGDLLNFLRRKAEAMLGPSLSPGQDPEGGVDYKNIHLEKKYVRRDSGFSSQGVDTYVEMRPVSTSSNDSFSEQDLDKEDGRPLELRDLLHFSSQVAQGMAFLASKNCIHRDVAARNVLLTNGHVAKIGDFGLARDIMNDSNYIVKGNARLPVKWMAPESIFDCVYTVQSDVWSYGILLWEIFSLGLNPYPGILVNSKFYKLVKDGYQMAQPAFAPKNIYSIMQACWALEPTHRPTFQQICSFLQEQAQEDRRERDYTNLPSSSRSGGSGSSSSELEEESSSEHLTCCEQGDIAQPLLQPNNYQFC

Sequence of B-Raf V600E (P15056 whole entry V600E): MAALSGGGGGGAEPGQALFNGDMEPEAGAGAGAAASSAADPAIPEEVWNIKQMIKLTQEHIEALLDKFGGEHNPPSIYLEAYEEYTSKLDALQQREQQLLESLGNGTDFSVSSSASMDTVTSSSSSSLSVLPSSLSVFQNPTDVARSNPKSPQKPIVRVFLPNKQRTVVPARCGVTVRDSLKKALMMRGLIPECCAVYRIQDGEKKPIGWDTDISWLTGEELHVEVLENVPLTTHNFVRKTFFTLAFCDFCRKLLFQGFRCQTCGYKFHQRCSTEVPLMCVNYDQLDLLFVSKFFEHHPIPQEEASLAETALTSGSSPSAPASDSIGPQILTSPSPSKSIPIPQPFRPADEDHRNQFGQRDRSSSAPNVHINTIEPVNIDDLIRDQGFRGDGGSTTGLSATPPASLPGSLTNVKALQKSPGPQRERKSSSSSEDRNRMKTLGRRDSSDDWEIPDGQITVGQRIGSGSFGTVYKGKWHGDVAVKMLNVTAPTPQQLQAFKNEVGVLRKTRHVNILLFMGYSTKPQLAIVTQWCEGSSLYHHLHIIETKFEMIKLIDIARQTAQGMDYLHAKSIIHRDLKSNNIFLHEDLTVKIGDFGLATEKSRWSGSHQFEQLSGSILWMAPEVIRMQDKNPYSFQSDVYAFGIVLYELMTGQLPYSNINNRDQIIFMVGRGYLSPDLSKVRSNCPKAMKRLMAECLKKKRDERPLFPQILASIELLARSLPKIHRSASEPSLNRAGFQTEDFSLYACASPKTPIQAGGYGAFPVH
Sequence of C-Raf (P04049 whole entry): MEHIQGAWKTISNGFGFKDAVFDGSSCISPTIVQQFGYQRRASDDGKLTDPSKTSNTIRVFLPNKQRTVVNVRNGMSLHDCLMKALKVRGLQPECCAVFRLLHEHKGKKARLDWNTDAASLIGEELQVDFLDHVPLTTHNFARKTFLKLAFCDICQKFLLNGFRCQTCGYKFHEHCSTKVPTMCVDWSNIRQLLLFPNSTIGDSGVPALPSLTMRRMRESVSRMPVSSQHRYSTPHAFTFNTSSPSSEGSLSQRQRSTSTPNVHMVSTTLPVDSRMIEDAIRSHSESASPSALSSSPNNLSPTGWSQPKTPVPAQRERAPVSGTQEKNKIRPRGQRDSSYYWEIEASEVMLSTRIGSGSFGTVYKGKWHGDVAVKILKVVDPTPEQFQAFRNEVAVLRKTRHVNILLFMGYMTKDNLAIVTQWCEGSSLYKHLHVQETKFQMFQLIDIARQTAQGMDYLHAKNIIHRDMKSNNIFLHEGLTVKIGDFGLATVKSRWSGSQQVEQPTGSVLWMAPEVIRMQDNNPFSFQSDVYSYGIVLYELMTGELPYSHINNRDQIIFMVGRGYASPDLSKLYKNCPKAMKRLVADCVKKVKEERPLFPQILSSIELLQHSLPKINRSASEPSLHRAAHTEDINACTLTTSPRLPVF
Sequence of B-Raf (P15056 whole entry): as the sequence (P15056 whole entry V600E) above, with E600V counted along it

- IC50 (B-Raf V600E): ≤ 10 µM
- IC50 (B-Raf): ≤ 10 µM
- IC50 (C-Raf): ≤ 10 µM
- IC50 (Fms): ≤ 10 µM
SMILES: O=C(c1c(F)ccc(NS(=O)(=O)c2cccnc2)c1F)c1c[nH]c2ncncc12 [Compound P-0066, Pyridine-3-sulfonic acid [2,4-difluoro-3-(7H-pyrrolo[2,3-d]pyrimidine-5-carbonyl)-phenyl]-amide]
